The record followed here is patent US20240368150A1 (Hoffmann-La Roche Inc., priority 2021, published 2024).

For assay [1], the system named is primary human T-cells. As to the kind of experiment: Proliferation assay after 5 days (CellTiter-Glo, CD3 stimulation; PBS counter screen). The settings on record: CD3 stimulation; for Emax: read-out: Emax proliferation (% activation); for EC50: primary human T-cells, CellTiter-Glo after 5 days, EC50 of fitted sigmoidal curve, read-out: Tcell Proliferation CD3 EC50. The assay is classed as cell-based. The procedure, abridged:
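After compound addition to medium-only plates, cells are cultured 5 days, equilibrated to room temperature, mixed with an equal volume of CellTiter-Glo 2.0 and rocked 15 min before luminescence is read. Signal reflects ATP content, taken as proportional to cell number.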
(In general: Cellular ATP, detected with luciferase, serves as a proxy for viable cell number.)

A further assay concerns MV-3 cells. The experiment in a line: T-cell - TCB - MV3 killing assay (MCSP-TCB, RFP object count by Incucyte). It is filed as cell-based, human.
For assay [2], the system named is primary human T-cells.
Setting [3] is: Homo sapiens, T-cell, 120 h, 5 days, normalized to reference compound A1 as stimulator control = 100%, DMSO neutral control.
The mark [4] stands for this setting: Homo sapiens, MV-3, 120 h, normalized: MCSP-TCB only = neutral control, 20 μM reference compound A1 = 100%; 5 d; read-out: MSCP TCB killing MV-3 cells 5 d Emax.
Where [5] appears, read: primary human T-cells + MCSP-TCB, MV-3 RFP cells, 5 d; read-out: MSCP TCB killing MV-3 cells 5 d EC50.
Where [6] appears, read: normalized: MCSP-TCB only = neutral control, 20 μM reference compound A1 = 100%; 5 d.

Structures are written as SMILES. Like-named read-outs stand apart in the source and are kept apart here. Some results are limits rather than exact numbers.

As to `C[C@H](N)C(=O)N[C@H]1CS(=O)(=O)c2cc(F)c(-c3nnc(C(C)(C)C)o3)cc2N(Cc2ccc(Cl)cc2)C1=O` [Example 262], the Emax in the assay with primary human T-cells [1] (setting [3]) was determined as 101%; with MV-3 cells (setting [4]), 92%. Further, the EC50 in the assay with primary human T-cells [1] (Homo sapiens, T-cell, 120 h) was less than 162 nM; with MV-3 cells (setting [5]), 30 nM; in the assay on primary human T-cells [2], less than 162 nM.

Take `N[C@H]1CS(=O)(=O)c2cc(F)c(-c3nnc(NC4CCCC(F)(F)C4)o3)cc2N(Cc2ccc(Cl)cc2)C1=O` (stereo partly drawn) [Example 463, (3R)-3-amino-5-[(4-chlorophenyl)methyl]-7-[5-[(3,3-difluorocyclohexyl)amino]-1,3,4-oxadiazol-2-yl]-8-fluoro-1,1-dioxo-2,3-dihydro-λ^6,5-benzothiazepin-4-one]: the values for the Emax in the assay with primary human T-cells [1] (setting [3]) and in the assay on MV-3 cells (setting [4]) were 104% and 91%, respectively. Moreover, the EC50 is 519 nM with primary human T-cells [1] (Homo sapiens, T-cell, 120 h); 540 nM in the assay with MV-3 cells (setting [5]); 577 nM in the assay on primary human T-cells [2].

Consider `CC(C)(C)n1cnc(-c2cc3c(cc2F)S(=O)(=O)C[C@H](N)C(=O)N3Cc2ccc(Cl)cc2)n1` [Example 286, (3R)-3-amino-7-(1-tert-butyl-1,2,4-triazol-3-yl)-5-[(4-chlorophenyl)methyl]-8-fluoro-1,1-dioxo-2,3-dihydro-1λ^6,5-benzothiazepin-4-one], for which the Emax in the assay on primary human T-cells [1] (setting [3]) worked out at 93%; in the assay with MV-3 cells (setting [4]), 100%. Moreover, the EC50 is 338 nM in the assay on primary human T-cells [1] (Homo sapiens, T-cell, 120 h); 80 nM with MV-3 cells (setting [5]); more than 20000 nM with primary human T-cells [2].

As to `CC(C)(C)c1cnn(-c2cc3c(cc2F)S(=O)(=O)C[C@H](N)C(=O)N3Cc2ccc(Cl)cc2)c1` [Example 282, (3R)-3-amino-7-(4-tert-butylpyrazol-1-yl)-5-[(4-chlorophenyl)methyl]-8-fluoro-1,1-dioxo-2,3-dihydro-1λ^6,5-benzothiazepin-4-one], the results for the Emax with primary human T-cells [1] (setting [3]) and in the assay on MV-3 cells (setting [4]) were 96% and 74%, respectively. The EC50 stood at 5490 nM in the assay on primary human T-cells [1] (Homo sapiens, T-cell, 120 h); 880 nM with MV-3 cells (setting [5]); 3710 nM with primary human T-cells [2].

On to `CC(C)(C)n1nnc(-c2cc3c(cc2F)S(=O)(=O)C[C@H](N)C(=O)N3Cc2ccc(Cl)cc2)n1` [Example 8, (3R)-3-amino-7-(2-tert-butyltetrazol-5-yl)-5-[(4-chlorophenyl)methyl]-8-fluoro-1,1-dioxo-2,3-dihydro-1λ^6,5-benzothiazepin-4-one], for which the Emax with primary human T-cells [1] (setting [3]) worked out at 130%; in the assay with MV-3 cells (setting [4]), 96%. Moreover, the EC50 in the assay with primary human T-cells [1] (Homo sapiens, T-cell, 120 h) is 84.5 nM; with MV-3 cells (Homo sapiens, MV-3, 120 h, primary human T-cells + MCSP-TCB, MV-3 RFP cells, 5 d; read-out: MSCP TCB killing MV-3 cells 5 d EC50), 70 nM; in the assay with primary human T-cells [2], 93.8 nM.

For `CC(C)(C)n1cc(-c2cc3c(cc2F)S(=O)(=O)C[C@H](N)C(=O)N3Cc2ccc(Cl)cc2)cn1` [Example 278, (3R)-3-amino-7-(1-tert-butylpyrazol-4-yl)-5-[(4-chlorophenyl)methyl]-8-fluoro-1,1-dioxo-2,3-dihydro-1λ^6,5-benzothiazepin-4-one], the Emax in the assay with primary human T-cells [1] (setting [3]) worked out at 102%; with MV-3 cells (setting [4]), 100%. Moreover, the EC50 with primary human T-cells [1] (Homo sapiens, T-cell, 120 h) worked out at 1080 nM; in the assay on MV-3 cells (setting [5]), 830 nM; with primary human T-cells [2] it was 177 nM.

Regarding `N[C@H]1CS(=O)(=O)c2cc(F)c(-c3nnc(C4CCCC(F)(F)C4)o3)cc2N(Cc2ccc(Cl)cc2)C1=O` (stereo partly drawn) [Example 91, (3R)-3-amino-5-[(4-chlorophenyl)methyl]-7-[5-(3,3-difluorocyclohexyl)-1,3,4-oxadiazol-2-yl]-8-fluoro-1,1-dioxo-2,3-dihydro-1λ^6,5-benzothiazepin-4-one], the Emax came out at 139% in the assay with primary human T-cells [1] (setting [3]) and 93% in the assay with MV-3 cells (setting [4]). Also, the EC50 in the assay on primary human T-cells [1] (Homo sapiens, T-cell, 120 h) was 125 nM; in the assay with MV-3 cells (setting [5]) it was 20 nM; with primary human T-cells [2], 34.1 nM.

Consider `CC(C)(C)c1nnc(-c2cc3c(cc2F)[S+]([O-])C[C@H](N)C(=O)N3Cc2ccc(Cl)cc2)o1` (single isomer, unassigned; epimer b) [Example 187], for which the “Emax proliferation (% activation)” value in the assay on primary human T-cells [1] (5 days, normalized to reference compound A1 as stimulator control = 100%, DMSO neutral control) came out at 92 % activation. Further, the EC50 stood at 1540 nM in the assay on primary human T-cells [1], 1640 nM with MV-3 cells (setting [5]) and 594 nM in the assay with primary human T-cells [2]. In the assay with MV-3 cells (setting [6]), the “MSCP TCB killing MV-3 cells 5 d Emax” value is listed as 57%.

Turning to `CC(C)Oc1ccc(CN2C(=O)[C@@H](N)CS(=O)(=O)c3cc(F)c(-c4nnc(C(C)(C)C)o4)cc32)cn1` [Example 249, (3R)-3-amino-7-(5-tert-butyl-1,3,4-oxadiazol-2-yl)-8-fluoro-5-[(6-isopropoxy-3-pyridyl)methyl]-1,1-dioxo-2,3-dihydro-1λ^6,5-benzothiazepin-4-one], the Emax in the assay on primary human T-cells [1] (setting [3]) worked out at 161%; in the assay with MV-3 cells (setting [4]), 100%. Besides, the EC50 is 1240 nM in the assay on primary human T-cells [1] (Homo sapiens, T-cell, 120 h); 210 nM in the assay with MV-3 cells (setting [5]); more than 10000 nM with primary human T-cells [2].

As to `CC(C)Oc1ccc(CN2C(=O)[C@@H](N)CS(=O)(=O)c3cc(F)c(-c4nnc(C(C)(C)C)o4)cc32)cc1` [Example 254, (3R)-3-amino-7-(5-tert-butyl-1,3,4-oxadiazol-2-yl)-8-fluoro-5-[(4-isopropoxyphenyl)methyl]-1,1-dioxo-2,3-dihydro-1λ^6,5-benzothiazepin-4-one], the Emax in the assay with primary human T-cells [1] (setting [3]) was 95%; in the assay with MV-3 cells (setting [4]) it was 104%. Also, the EC50 in the assay on primary human T-cells [1] (Homo sapiens, T-cell, 120 h) is less than 15.1 nM; in the assay with MV-3 cells (setting [5]), 10 nM; with primary human T-cells [2], 59.5 nM.

`CC1(Nc2nnc(-c3cc4c(cc3F)S(=O)(=O)C[C@H](N)C(=O)N4Cc3ccc(Cl)cc3)o2)CC(F)(F)C1` [Example 461, (3R)-3-amino-5-[(4-chlorophenyl)methyl]-7-[5-[(3,3-difluoro-1-methyl-cyclobutyl)amino]-1,3,4-oxadiazol-2-yl]-8-fluoro-1,1-dioxo-2,3-dihydro-1λ^6,5-benzothiazepin-4-one]: the Emax in the assay with primary human T-cells [1] (setting [3]) turned out to be 106%; with MV-3 cells (setting [4]), 91%. For the same molecule, the EC50 with primary human T-cells [1] (Homo sapiens, T-cell, 120 h) was found to be 395 nM; with MV-3 cells (setting [5]), 310 nM; in the assay on primary human T-cells [2], 455 nM.

As to `CC(C)(C)c1nnc(-c2cc3c(cc2F)S(=O)(=O)C[C@H](N)C(=O)N3Cc2ccc(C#N)cc2)o1` [Example 220, 4-[[(3R)-3-amino-7-(5-tert-butyl-1,3,4-oxadiazol-2-yl)-8-fluoro-1,1,4-trioxo-2,3-dihydro-1λ^6,5-benzothiazepin-5-yl]methyl]benzonitrile], the Emax is 102% with primary human T-cells [1] (setting [3]) and 100% in the assay with MV-3 cells (Homo sapiens, MV-3, 120 h, read-out: MSCP TCB killing MV-3 cells 5 d Emax). The EC50 with primary human T-cells [1] (T-cell, 120 h) came out at 564 nM; with MV-3 cells (read-out: MSCP TCB killing MV-3 cells 5 d EC50; primary human T-cells + MCSP-TCB, MV-3 RFP cells, 5 d) it was 390 nM; in the assay with primary human T-cells [2], 238 nM.

Consider `CN1CCC(n2nnc(-c3cc4c(cc3F)S(=O)(=O)C[C@H](N)C(=O)N4Cc3ccc(Cl)cc3)n2)C1` (stereo partly drawn) [Example 12, (3R)-3-amino-5-[(4-chlorophenyl)methyl]-8-fluoro-7-[2-(1-methylpyrrolidin-3-yl)tetrazol-5-yl]-1,1-dioxo-2,3-dihydro-1λ^6,5-benzothiazepin-4-one], for which the Emax was found to be 84% with primary human T-cells [1] (setting [3]) and 96% with MV-3 cells (setting [4]). The EC50 is 1020 nM in the assay with primary human T-cells [1] (Homo sapiens, T-cell, 120 h); 910 nM with MV-3 cells (setting [5]); 967 nM with primary human T-cells [2].

For the molecule `CCc1nnn(-c2cc3c(cc2F)S(=O)(=O)C[C@H](N)C(=O)N3Cc2ccc(Cl)cc2)n1` [Example 509, (3R)-3-amino-5-[(4-chlorophenyl)methyl]-7-(5-ethyltetrazol-2-yl)-8-fluoro-1,1-dioxo-2,3-dihydro-1λ^6,5-benzothiazepin-4-one], the Emax with primary human T-cells [1] (setting [3]) came to 122%; with MV-3 cells (setting [4]) it was 94%. For the same molecule, the EC50 in the assay on primary human T-cells [1] (Homo sapiens, T-cell, 120 h) is 158 nM; with MV-3 cells (setting [5]), 190 nM; in the assay on primary human T-cells [2], 290 nM.

For `CC(C)(C)c1nnc(-c2cc3c(cc2F)[S+]([O-])C[C@H](N)C(=O)N3Cc2ccc(Cl)cc2)o1` (stereo partly drawn) [Example 186, (3R)-3-amino-7-(5-tert-butyl-1,3,4-oxadiazol-2-yl)-5-[(4-chlorophenyl)methyl]-8-fluoro-1-oxo-2,3-dihydro-1λ^4,5-benzothiazepin-4-one], the Emax in the assay with primary human T-cells [1] (setting [3]) was 94%. Moreover, the EC50 with primary human T-cells [1] was 710 nM; in the assay on MV-3 cells (setting [5]) it was 130 nM; in the assay with primary human T-cells [2], 158 nM. In the assay with MV-3 cells (setting [6]), the “MSCP TCB killing MV-3 cells 5 d Emax” value was 100%.

With `NC(c1nnc(-c2cc3c(cc2F)S(=O)(=O)C[C@H](N)C(=O)N3Cc2ccc(Cl)cc2)o1)C(F)(F)F` (stereo partly drawn) [Example 122, (3R)-3-amino-7-[5-(1-amino-2,2,2-trifluoro-ethyl)-1,3,4-oxadiazol-2-yl]-5-[(4-chlorophenyl)methyl]-8-fluoro-1,1-dioxo-2,3-dihydro-1λ^6,5-benzothiazepin-4-one], the Emax in the assay with primary human T-cells [1] (setting [3]) worked out at 92%; with MV-3 cells (setting [4]), 86%. Besides, the EC50 was 782 nM in the assay with primary human T-cells [1] (Homo sapiens, T-cell, 120 h); 510 nM with MV-3 cells (setting [5]); 238 nM in the assay on primary human T-cells [2].

On to `N[C@H]1CS(=O)(=O)c2cc(F)c(-c3nnc(NC4CCC(F)(F)C4)o3)cc2N(Cc2ccc(Cl)cc2)C1=O` (stereo partly drawn) [Example 456, (3R)-3-amino-5-[(4-chlorophenyl)methyl]-7-[5-[(3,3-difluorocyclopentyl)amino]-1,3,4-oxadiazol-2-yl]-8-fluoro-1,1-dioxo-2,3-dihydro-1λ^6,5-benzothiazepin-4-one], for which the results for the Emax with primary human T-cells [1] (setting [3]) and in the assay on MV-3 cells (setting [4]) were 99% and 94%, respectively. Also, the EC50 in the assay with primary human T-cells [1] (Homo sapiens, T-cell, 120 h) amounted to 1260 nM; in the assay on MV-3 cells (setting [5]), 770 nM; in the assay on primary human T-cells [2], 607 nM.
